Measured values published in patent US11492335B2, “Aryl or heteroaryl triazolone derivatives or salts thereof, or pharmaceutical compositions comprising the same” (YUHAN CORPORATION, priority 2018, dated 2022).
Counter-ions that a name gives are not always drawn. Like-named read-outs stand apart in the source and are kept apart here.

Columns and labels:
Type in all cases: biochemical
recombinant human VAP-1 = target: T1, recombinant human VAP-1 (Homo sapiens, UniProt Q16853); test: Activity on recombinant human VAP-1, Amplex Red HRP-coupled hydrogen peroxide assay, benzylamine substrate; conditions: recombinant human VAP-1, benzylamine substrate, read-out: Inhibitory Activity (IC50, nM) human VAP-1
T1 construct: purchased R&D systems
T1 sequence (Q16853 1-763): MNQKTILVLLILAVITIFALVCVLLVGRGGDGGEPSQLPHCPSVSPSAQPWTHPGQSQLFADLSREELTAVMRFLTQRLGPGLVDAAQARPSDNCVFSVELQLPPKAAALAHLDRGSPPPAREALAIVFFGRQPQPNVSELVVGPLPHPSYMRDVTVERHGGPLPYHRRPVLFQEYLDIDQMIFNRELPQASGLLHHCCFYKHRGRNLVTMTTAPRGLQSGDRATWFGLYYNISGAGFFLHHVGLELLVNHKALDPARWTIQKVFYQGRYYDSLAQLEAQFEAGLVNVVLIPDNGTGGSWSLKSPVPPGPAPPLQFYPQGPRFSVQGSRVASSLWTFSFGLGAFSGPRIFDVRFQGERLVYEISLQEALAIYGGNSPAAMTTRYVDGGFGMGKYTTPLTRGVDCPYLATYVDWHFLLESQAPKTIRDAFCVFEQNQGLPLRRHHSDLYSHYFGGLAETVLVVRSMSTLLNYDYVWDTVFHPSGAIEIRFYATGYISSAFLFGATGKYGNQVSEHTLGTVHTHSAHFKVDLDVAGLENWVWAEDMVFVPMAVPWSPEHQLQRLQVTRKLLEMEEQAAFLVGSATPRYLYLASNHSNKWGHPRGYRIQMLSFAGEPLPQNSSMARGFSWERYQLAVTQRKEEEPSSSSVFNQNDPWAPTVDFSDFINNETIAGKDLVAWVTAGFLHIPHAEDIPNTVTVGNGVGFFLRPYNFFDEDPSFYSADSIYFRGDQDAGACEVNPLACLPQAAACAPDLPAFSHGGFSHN
Summary of the method: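 H2O2 generation from 1 mM benzylamine was coupled via 1 U/mL HRP to 200 uM Amplex Red; inhibitors, serially diluted 1:3 over 8 points with under 1% final DMSO, had been preincubated 30 min at 37 °C. IC50 from percentage drop in rate.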

[1] = target: T2, recombinant human MAO-B (monoamine oxidase-B) (Homo sapiens, UniProt P27338); test: Activity on recombinant human MAO-B, Amplex Red method, 1 mM benzylamine substrate; conditions: read-out: Inhibitory Activity (IC50, nM) MAO-B
T2 construct: purchased Sigma-Aldrich
T2 sequence (P27338 1-520): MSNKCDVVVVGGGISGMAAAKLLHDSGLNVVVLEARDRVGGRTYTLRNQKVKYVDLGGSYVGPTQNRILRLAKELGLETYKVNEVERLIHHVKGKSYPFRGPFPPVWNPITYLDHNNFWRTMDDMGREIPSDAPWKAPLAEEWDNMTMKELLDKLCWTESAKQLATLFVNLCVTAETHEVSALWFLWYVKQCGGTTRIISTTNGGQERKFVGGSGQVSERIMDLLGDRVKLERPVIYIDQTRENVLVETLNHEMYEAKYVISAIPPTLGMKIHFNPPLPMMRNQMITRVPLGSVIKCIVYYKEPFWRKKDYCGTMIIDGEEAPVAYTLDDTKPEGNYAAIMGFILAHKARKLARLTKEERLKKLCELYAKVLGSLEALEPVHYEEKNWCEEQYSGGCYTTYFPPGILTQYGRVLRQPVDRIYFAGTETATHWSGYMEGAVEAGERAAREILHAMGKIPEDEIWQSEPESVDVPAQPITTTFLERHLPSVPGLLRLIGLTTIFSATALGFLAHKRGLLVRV
Experimental: (§1) The compounds according to the present technology were evaluated in terms of activity on recombinant human VAP-1 (R&D systems) by measuring the level of hydrogen peroxide in horseradish peroxidase (HRP)-coupled reaction using Amplex Red Hydrogen Peroxide Assay Kit (Molecular Probes, Invitrogen, USA). The experiment was carried out at room temperature using benzylamine as a substrate. In the HRP-coupled reaction, hydrogen peroxide oxidation of 10-acetyl-3,7-dihydroxyphenoxazine (Amplex Red reagent) produces resorufin, which is a highly fluorescent compound. Briefly, the test compound was dissolved in dimethyl sulfoxide (DMSO) at a concentration of 20 mM. The dose-response assessment was made by 1:3 serial dilution in DMSO, thereby creating an 8 point curve. The concentration of the upper part was controlled according to the efficacy of the compounds, followed by dilution with a reaction buffer solution to obtain a final DMSO concentration less than 1%. To each well of a 96 black well plate, human VAP-1 purified in 50 mM sodium phosphate buffer solution (pH7.4) was added. The test compounds dissolved in DMSO were incubated with the human VAP-1 enzymes at 37° C. for 30 minutes. After 30-minute incubation, each well is added with a reaction mixture containing 200 uM Amplex Red reagent prepared from 50 mM sodium phosphate buffer solution (pH 7.4), 1 mM benzylamine, and 1 U/mL HRP. Fluorescence intensity was measured at several time points during 1-2 hours using a microplate reader (Flexstation3, Molecular Devices) under the wavelength condition exciting at 544 nm and reading the emission at 590 nm. The inhibitory effect of the compounds was measured as a decrease (%) in the signal rate as compared to the control group without any inhibitor (only diluted DMSO). Data was fixed to a logistic model with four variables and IC50 value was calculated using GraphPad Prism program.
(§2) In addition, the compounds according to the present technology were evaluated in terms of activity on a recombinant human MAO-A (monoamine oxidase-A, Sigma-Aldrich) and a recombinant human MAO-B (monoamine oxidase-B, Sigma-Aldrich) by using as substrates, 0.5 mM tyramine and 1 mM benzylamine, respectively, with a method similar to the activity evaluation method for recombinant human VAP-1. The compounds according to the present technology were also evaluated in terms of activity on a recombinant human DAO (diamine oxidase, R&D systems) by using as a substrate 1 mM putrescine with a method similar to the activity evaluation method for recombinant human VAP-1.

[2] = target: T3, recombinant human DAO (diamine oxidase) (Homo sapiens, UniProt P19801); test: Activity on recombinant human DAO, Amplex Red method, 1 mM putrescine substrate; conditions: recombinant human DAO, read-out: Inhibitory Activity (IC50, nM) DAO
T3 construct: purchased R&D systems
T3 sequence (P19801 20-751): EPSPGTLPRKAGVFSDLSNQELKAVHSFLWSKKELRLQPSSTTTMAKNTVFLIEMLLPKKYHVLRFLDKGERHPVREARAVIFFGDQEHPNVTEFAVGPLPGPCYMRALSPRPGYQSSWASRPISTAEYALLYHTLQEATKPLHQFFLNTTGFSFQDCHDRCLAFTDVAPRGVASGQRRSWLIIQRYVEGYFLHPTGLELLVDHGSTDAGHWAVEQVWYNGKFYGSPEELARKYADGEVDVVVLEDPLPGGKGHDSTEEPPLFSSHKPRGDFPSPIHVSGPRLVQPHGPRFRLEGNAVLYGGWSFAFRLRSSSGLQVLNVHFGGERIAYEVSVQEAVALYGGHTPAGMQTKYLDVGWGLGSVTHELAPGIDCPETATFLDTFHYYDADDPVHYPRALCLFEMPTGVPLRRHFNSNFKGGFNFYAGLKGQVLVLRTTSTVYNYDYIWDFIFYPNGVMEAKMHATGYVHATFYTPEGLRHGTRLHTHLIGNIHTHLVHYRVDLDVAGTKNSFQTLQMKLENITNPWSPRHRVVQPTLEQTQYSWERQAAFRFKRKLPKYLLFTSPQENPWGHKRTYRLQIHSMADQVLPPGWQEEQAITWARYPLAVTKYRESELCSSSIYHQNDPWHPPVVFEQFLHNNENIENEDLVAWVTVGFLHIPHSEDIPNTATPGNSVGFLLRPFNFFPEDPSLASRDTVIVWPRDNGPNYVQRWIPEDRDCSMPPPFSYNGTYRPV
Summary of the method: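 Inhibition of recombinant human DAO (diamine oxidase, R&D systems) was assessed with the Amplex Red Hydrogen Peroxide Assay Kit. Hydrogen peroxide produced from 1 mM putrescine was detected through an HRP-coupled reaction that converts Amplex Red into fluorescent resorufin, read at 544 nm excitation and 590 nm emission. IC50 values came from four-parameter logistic fits in GraphPad Prism.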

[3] = target: T4, recombinant human MAO-A (monoamine oxidase-A) (Homo sapiens, UniProt P21397); test: Activity on recombinant human MAO-A, Amplex Red method, 0.5 mM tyramine substrate; conditions: read-out: Inhibitory Activity (IC50, nM) MAO-A
T4 construct: purchased Sigma-Aldrich
T4 sequence (P21397 1-527): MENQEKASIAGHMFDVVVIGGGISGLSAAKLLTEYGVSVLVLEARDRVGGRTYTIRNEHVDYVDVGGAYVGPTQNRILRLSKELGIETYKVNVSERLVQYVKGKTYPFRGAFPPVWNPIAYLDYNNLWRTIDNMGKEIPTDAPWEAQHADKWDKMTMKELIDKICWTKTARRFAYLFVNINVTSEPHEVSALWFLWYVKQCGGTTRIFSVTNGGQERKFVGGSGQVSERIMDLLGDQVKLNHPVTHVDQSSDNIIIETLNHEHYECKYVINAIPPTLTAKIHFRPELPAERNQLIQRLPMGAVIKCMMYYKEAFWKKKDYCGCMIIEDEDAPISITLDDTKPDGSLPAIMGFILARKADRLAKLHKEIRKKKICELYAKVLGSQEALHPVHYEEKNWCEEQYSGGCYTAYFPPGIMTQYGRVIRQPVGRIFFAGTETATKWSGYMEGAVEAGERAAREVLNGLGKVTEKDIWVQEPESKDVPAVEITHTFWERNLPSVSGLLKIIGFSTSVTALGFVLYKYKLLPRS
Experimental: as §1, §2

[4] = 1 mM putrescine, * = between 10 and 100 nM, ** = between 300 and 1000 nM

SMILES | IC50 (recombinant human VAP-1; 30 min preincubation at 37° C.) [nM] | IC50 ([1]; 1 mM benzylamine) [nM] | IC50 [2, 4] [nM] | IC50 ([3]; 0.5 mM tyramine) [nM] | IC50 (recombinant human VAP-1) [nM] | IC50 ([1]; 1 mM benzylamine substrate) [nM] | IC50 ([2]; 1 mM putrescine substrate) [nM] | IC50 ([3]; 0.5 mM tyramine substrate) [nM]
CC(=O)c1ccc(-c2cnc(-n3cnn(C/C(=C/F)CN)c3=O)c(C)c2)s1 [Example 132, 4-[5-(5-acetylthiophen-2-yl)-3-methylpyridin-2-yl]-2-[(2E)-2-(aminomethyl)-3-fluoroprop-2-en-1-yl]-2,4-dihydro-3H-1,2,4-triazol-3-one hydrochloride] | 0.54 | 850 | 280 | 62000 |  |  |  | 
Cc1c(-c2ccc(-c3ccon3)cc2)cccc1-n1cnn(C/C(=C/F)CN)c1=O [Example 108, 2-[(2E)-2-(aminomethyl)-3-fluoroprop-2-en-1-yl]-4-[2-methyl-4′-(1,2-oxazol-3-yl)biphenyl-3-yl]-2,4-dihydro-3H-1,2,4-triazol-3-one] | 2.2 | > 10000 | 3500 | > 100000 |  |  |  | 
CC(C)n1cc(-c2cccc(-n3cnn(C/C(=C/F)CN)c3=O)c2)ccc1=O [Example 90, 5-(3-{1-[(2E)-2-(aminomethyl)-3-fluoroprop-2-en-1-yl]-5-oxo-1,5-dihydro-4H-1,2,4-triazol-4-yl}phenyl)-1-(propan-2-yl)pyridin-2(1H)-one hydrochloride] | 1.4 | > 10000 | 19 | > 100000 |  |  |  | 
NC/C(=C\F)Cn1ncn(-c2cccc(-c3ccc(C(F)(F)F)nc3)c2)c1=O [Example 84, 2-[(2E)-2-(aminomethyl)-3-fluoroprop-2-en-1-yl]-4-{3-[6-(trifluoromethyl)pyridin-3-yl]phenyl}-2,4-dihydro-3H-1,2,4-triazol-3-one hydrochloride] | 0.78 | 3000 | < 10 | > 100000 |  |  |  | 
CC(C)c1nc(-c2ccc(-c3cccc(-n4cnn(C/C(=C/F)CN)c4=O)c3)cc2)no1 [Example 64, 2-[(2E)-2-(aminomethyl)-3-fluoroprop-2-en-1-yl]-4-{4′-[5-(propan-2-yl)-1,2,4-oxadiazol-3-yl]biphenyl-3-yl}-2,4-dihydro-3H-1,2,4-triazol-3-one hydrochloride] | 3.2 | > 10000 | < 30 | 6030 |  |  |  | 
Cc1cc(-c2cccc(-c3noc(C(C)C)n3)c2)cnc1-n1cnn(C/C(=C/F)CN)c1=O [Example 143, 2-[(2E)-2-(aminomethyl)-3-fluoroprop-2-en-1-yl]-4-(3-methyl-5-{3-[5-(propan-2-yl)-1,2,4-oxadiazol-3-yl]phenyl}pyridin-2-yl)-2,4-dihydro-3H-1,2,4-triazol-3-one hydrochloride] | 0.43 | 5340 | 12 | 112000 |  |  |  | 
NC/C(=C\F)Cn1ncn(-c2cccc(-c3cccc4c3oc3ccccc34)n2)c1=O [Example 203, 2-[(2E)-2-(aminomethyl)-3-fluoroprop-2-en-1-yl]-4-[6-(dibenzo[b,d]furan-4-yl)pyridin-2-yl]-2,4-dihydro-3H-1,2,4-triazol-3-one hydrochloride] |  |  |  |  | 1.8 | 73 | 3 | 12000
NC/C(=C/F)Cn1ncn(-c2ccc(Br)c(F)c2)c1=O [Example 13, 2-[(2Z)-2-(aminomethyl)-3-fluoroprop-2-en-1-yl]-4-(4-bromo-3-fluorophenyl)-2,4-dihydro-3H-1,2,4-triazol-3-one] | 2.3 | 3.3 | 67 | 155 |  |  |  | 
